Data published in patent US20240317866A1, “Use of Anti-EGFR/Anti-Met Antibody to Treat Gastric or Esophageal Cancer” (Janssen Biotech, Inc., priority 2022, published 2024).

Key:
Assay type in all cases: in vivo, BALB/c nude mice
GA0046 gastric PDX = assay: Gastric PDX model GA0046, tumor growth inhibition
GA0152 gastric PDX = assay: Gastric PDX model GA0152, tumor growth inhibition; conditions: amivantamab 10 mg/kg i.p. BIW, 5-FU 10 mg/kg i.p. QD 5 days/week, cisplatin 4 mg/kg i.p. QW, paclitaxel 15 mg/kg i.v. QW, vs isotype control
Experimental: (§1) Tumor fragments from stock tumor bearing mice were harvested and inoculated into BALB/c nude mice. Each mouse was inoculated subcutaneously in the right flank with indicated tumor fragments (2-3 mm in diameter) for tumor development.
(§2) After establishment of palpable lesions, the tumor growth was measured twice weekly. Once the mean tumor volume reached approximate 150 mm^3, animals were randomly allocated to relevant study groups with 8 mice per group. The randomization was performed according to the tumor size of each group, and the day of randomization was denoted as Day0. The treatments were started on the same day of randomization according to the dosing regimen in Table 18 where appropriate.
(§3) The study endpoints were to compare the tumor growth in each group at the end of treatments, and the subsequent tumor outgrowth after dosing stopped. The tumor size was measured twice weekly in two dimensions using a caliper, and the tumor volume was expressed in mm3 using the formula V=0.5×L×W^2, where V was tumor volume, L was tumor length (longest tumor dimension) and W was tumor width (longest tumor dimension perpendicular to L).
(§4) Tumor growth inhibition (TGI %) was an indication of anti-tumor activities, and calculated as TGI %=(1−(T−T0)/(C−C0))×100%, T and C were the mean tumor volume (TV) of treated and control groups, respectively on the day when mean TV of control group were terminated per study design.

GA3121 gastric PDX = assay: Gastric PDX model GA3121, tumor growth inhibition; conditions: amivantamab 10 mg/kg i.p. BIW, paclitaxel 10 mg/kg i.v. QW, vs isotype control
Experimental: as §1, §2
as §3, with “L). […]” for “L).”

GA0075 gastric PDX = assay: Gastric PDX model GA0075, tumor growth inhibition; conditions: amivantamab 10 mg/kg i.p. BIW, 5-FU 10 mg/kg i.p. QD 5 days/week, cisplatin 4 mg/kg i.p. QW, paclitaxel 15 mg/kg i.v. QW, vs isotype control, Day28
Experimental: as §1, §2, §3, §4

Row | Compound | effect on tumor growth (in words) (GA0046 gastric PDX; amivantamab 10 mg/kg BIW single agent, capmatinib 10 mg/kg BID) | TGI% (GA0046 gastric PDX; amivantamab 10 mg/kg i.p. BIW, capmatinib 10 mg/kg p.o. BID, vs isotype control, Day28) | TGI% (GA0152 gastric PDX) | TGI% (GA0152 gastric PDX; listed as paxlitaxel) | TGI% (GA3121 gastric PDX) | TGI% (GA0075 gastric PDX)
1 | CNC(=O)c1ccc(-c2cnc3ncc(Cc4ccc5ncccc5c4)n3n2)cc1F [capmatinib, reference compound] | no effect on tumor growth | 5.93% |  |  |  | 
2 | CC(=O)O[C@H]1C(=O)[C@@]2(C)[C@H]([C@H](OC(=O)c3ccccc3)[C@]3(O)C[C@H](OC(=O)[C@H](O)[C@@H](NC(=O)c4ccccc4)c4ccccc4)C(C)=C1C3(C)C)[C@]1(OC(C)=O)CO[C@@H]1C[C@@H]2O [paclitaxel, reference compound] |  |  | 27.29% | 27.29% | −12.99% | 66.09%
